{
  "source": "PubChem BioAssay AID1963960",
  "about": "(Molecular Pharmacology Branch, DTP, NCI, 2024)",
  "tested_on": "MDA-MB-468 spheroids with HUVEC/MSC, viability",
  "test": "Anticancer human tumor MDA-MB-468 cell line growth inhibition [PI3K];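 also: spheroids exposed to agents for seven days before readout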;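 as to viability, T/C: 100% = DMSO vehicle control viability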",
  "settings": "for IC50: curve of first compound; for viability, T/C: stronger effect = lower value",
  "procedure,_shortened": "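High-throughput combination screen: PI3K inhibitors crossed with targeted small molecules on complex spheroids of tumor cells, HUVEC and MSCs at 37 degrees C, 5% CO2. Top concentration was at or near clinical Cmax (otherwise 10 microM), with half-log decrements.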",
  "key": {"[1]": {"settings": "second compound 0.00316 µM, first compound 0.0316 µM"}, "[2]": {"settings": "second compound 0.00316 µM, first compound 0.1 µM"}, "[3]": {"settings": "second compound 0.01 µM, first compound 0.0316 µM"}, "[4]": {"settings": "second compound 0.01 µM, first compound 0.1 µM"}, "[5]": {"settings": "second compound 0.0316 µM, first compound 0.0316 µM"}, "[6]": {"settings": "second compound 0.0316 µM, first compound 0.1 µM"}, "[7]": {"settings": "second compound 0.1 µM, first compound 0.0316 µM"}, "[8]": {"settings": "second compound 0.1 µM, first compound 0.1 µM"}, "[9]": {"settings": "second compound 0.316 µM, first compound 0.0316 µM"}, "[10]": {"settings": "second compound 0.316 µM, first compound 0.1 µM"}, "[11]": {"settings": "second compound 1 µM, first compound 0.0316 µM"}, "[12]": {"settings": "second compound 1 µM, first compound 0.1 µM"}},
  "data": [
    {"smiles": "CC(C)n1nc(-c2ccc3oc(N)nc3c2)c2c(N)ncnc21", "note": "+ COc1c(OCCCN2CCOCC2)ccc2c3n(c(=NC(=O)c4cnc(N)nc4)nc12)CCN3", "values": [
      {"measurement": "IC50", "setting": "second compound 0.00316 µM", "result": 34.2, "unit": "nM"},
      {"measurement": "IC50", "setting": "second compound 0.01 µM", "result": 41.7, "unit": "nM"},
      {"measurement": "IC50", "setting": "second compound 0.0316 µM", "result": 32, "unit": "nM"},
      {"measurement": "IC50", "setting": "second compound 0.1 µM", "result": 10.4, "unit": "nM"},
      {"measurement": "IC50", "setting": "second compound 0.316 µM", "result": "< 0.316", "unit": "nM"},
      {"measurement": "IC50", "setting": "second compound 1 µM", "result": "< 0.316", "unit": "nM"},
      {"measurement": "viability, T/C", "setting": "second compound 0.00316 µM, first compound 0.000316 µM", "result": 81.1, "unit": "%"},
      {"measurement": "viability, T/C", "setting": "second compound 0.00316 µM, first compound 0.001 µM", "result": 87, "unit": "%"},
      {"measurement": "viability, T/C", "setting": "second compound 0.00316 µM, first compound 0.00316 µM", "result": 95.5, "unit": "%"},
      {"measurement": "viability, T/C", "setting": "second compound 0.00316 µM, first compound 0.01 µM", "result": 88.3, "unit": "%"},
      {"measurement": "viability, T/C", "setting": "[1]", "result": 52.3, "unit": "%"},
      {"measurement": "viability, T/C", "setting": "[2]", "result": 18.8, "unit": "%"},
      {"measurement": "viability, T/C", "setting": "second compound 0.01 µM, first compound 0.000316 µM", "result": 77.2, "unit": "%"},
      {"measurement": "viability, T/C", "setting": "second compound 0.01 µM, first compound 0.001 µM", "result": 83.5, "unit": "%"},
      {"measurement": "viability, T/C", "setting": "second compound 0.01 µM, first compound 0.00316 µM", "result": 87.7, "unit": "%"},
      {"measurement": "viability, T/C", "setting": "second compound 0.01 µM, first compound 0.01 µM", "result": 81.1, "unit": "%"},
      {"measurement": "viability, T/C", "setting": "[3]", "result": 61.1, "unit": "%"},
      {"measurement": "viability, T/C", "setting": "[4]", "result": 14.9, "unit": "%"},
      {"measurement": "viability, T/C", "setting": "second compound 0.0316 µM, first compound 0.000316 µM", "result": 75.6, "unit": "%"},
      {"measurement": "viability, T/C", "setting": "second compound 0.0316 µM, first compound 0.001 µM", "result": 84.4, "unit": "%"},
      {"measurement": "viability, T/C", "setting": "second compound 0.0316 µM, first compound 0.00316 µM", "result": 80.9, "unit": "%"},
      {"measurement": "viability, T/C", "setting": "second compound 0.0316 µM, first compound 0.01 µM", "result": 68, "unit": "%"},
      {"measurement": "viability, T/C", "setting": "[5]", "result": 51.2, "unit": "%"},
      {"measurement": "viability, T/C", "setting": "[6]", "result": 11.6, "unit": "%"},
      {"measurement": "viability, T/C", "setting": "second compound 0.1 µM, first compound 0.000316 µM", "result": 49.8, "unit": "%"},
      {"measurement": "viability, T/C", "setting": "second compound 0.1 µM, first compound 0.001 µM", "result": 63.6, "unit": "%"},
      {"measurement": "viability, T/C", "setting": "second compound 0.1 µM, first compound 0.00316 µM", "result": 53.7, "unit": "%"},
      {"measurement": "viability, T/C", "setting": "second compound 0.1 µM, first compound 0.01 µM", "result": 49.9, "unit": "%"},
      {"measurement": "viability, T/C", "setting": "[7]", "result": 36, "unit": "%"},
      {"measurement": "viability, T/C", "setting": "[8]", "result": 7.66, "unit": "%"},
      {"measurement": "viability, T/C", "setting": "second compound 0.316 µM, first compound 0.000316 µM", "result": 28.2, "unit": "%"},
      {"measurement": "viability, T/C", "setting": "second compound 0.316 µM, first compound 0.001 µM", "result": 25.8, "unit": "%"},
      {"measurement": "viability, T/C", "setting": "second compound 0.316 µM, first compound 0.00316 µM", "result": 28.1, "unit": "%"},
      {"measurement": "viability, T/C", "setting": "second compound 0.316 µM, first compound 0.01 µM", "result": 24.9, "unit": "%"},
      {"measurement": "viability, T/C", "setting": "[9]", "result": 15.4, "unit": "%"},
      {"measurement": "viability, T/C", "setting": "[10]", "result": 3.12, "unit": "%"},
      {"measurement": "viability, T/C", "setting": "second compound 1 µM, first compound 0.000316 µM", "result": 3.84, "unit": "%"},
      {"measurement": "viability, T/C", "setting": "second compound 1 µM, first compound 0.001 µM", "result": 3.57, "unit": "%"},
      {"measurement": "viability, T/C", "setting": "second compound 1 µM, first compound 0.00316 µM", "result": 2.98, "unit": "%"},
      {"measurement": "viability, T/C", "setting": "second compound 1 µM, first compound 0.01 µM", "result": 3, "unit": "%"},
      {"measurement": "viability, T/C", "setting": "[11]", "result": 1.87, "unit": "%"},
      {"measurement": "viability, T/C", "setting": "[12]", "result": 0.59, "unit": "%"}
    ]},
    {"smiles": "CC1(C)CCC(CN2CCN(c3ccc(C(=O)NS(=O)(=O)c4ccc(NCC5CCOCC5)c([N+](=O)[O-])c4)c(Oc4cnc5[nH]ccc5c4)c3)CC2)=C(c2ccc(Cl)cc2)C1", "note": "+ COc1c(OCCCN2CCOCC2)ccc2c3n(c(=NC(=O)c4cnc(N)nc4)nc12)CCN3", "values": [
      {"measurement": "IC50", "setting": "second compound 0.00316 µM", "result": "> 10000", "unit": "nM"},
      {"measurement": "IC50", "setting": "second compound 0.01 µM", "result": "> 10000", "unit": "nM"},
      {"measurement": "IC50", "setting": "second compound 0.0316 µM", "result": "> 10000", "unit": "nM"},
      {"measurement": "IC50", "setting": "second compound 0.1 µM", "result": "> 10000", "unit": "nM"},
      {"measurement": "IC50", "setting": "second compound 0.316 µM", "result": "< 31.6", "unit": "nM"},
      {"measurement": "IC50", "setting": "second compound 1 µM", "result": "< 31.6", "unit": "nM"},
      {"measurement": "viability, T/C", "setting": "[1]", "result": 80.4, "unit": "%"},
      {"measurement": "viability, T/C", "setting": "[2]", "result": 87, "unit": "%"},
      {"measurement": "viability, T/C", "setting": "second compound 0.00316 µM, first compound 0.316 µM", "result": 82.9, "unit": "%"},
      {"measurement": "viability, T/C", "setting": "second compound 0.00316 µM, first compound 1 µM", "result": 99.9, "unit": "%"},
      {"measurement": "viability, T/C", "setting": "second compound 0.00316 µM, first compound 3.16 µM", "result": 80.3, "unit": "%"},
      {"measurement": "viability, T/C", "setting": "second compound 0.00316 µM, first compound 10 µM", "result": 78.3, "unit": "%"},
      {"measurement": "viability, T/C", "setting": "[3]", "result": 79.2, "unit": "%"},
      {"measurement": "viability, T/C", "setting": "[4]", "result": 79.7, "unit": "%"},
      {"measurement": "viability, T/C", "setting": "second compound 0.01 µM, first compound 0.316 µM", "result": 92, "unit": "%"},
      {"measurement": "viability, T/C", "setting": "second compound 0.01 µM, first compound 1 µM", "result": 87.9, "unit": "%"},
      {"measurement": "viability, T/C", "setting": "second compound 0.01 µM, first compound 3.16 µM", "result": 76.2, "unit": "%"},
      {"measurement": "viability, T/C", "setting": "second compound 0.01 µM, first compound 10 µM", "result": 90.2, "unit": "%"},
      {"measurement": "viability, T/C", "setting": "[5]", "result": 77.5, "unit": "%"},
      {"measurement": "viability, T/C", "setting": "[6]", "result": 71.2, "unit": "%"},
      {"measurement": "viability, T/C", "setting": "second compound 0.0316 µM, first compound 0.316 µM", "result": 80, "unit": "%"},
      {"measurement": "viability, T/C", "setting": "second compound 0.0316 µM, first compound 1 µM", "result": 83.1, "unit": "%"},
      {"measurement": "viability, T/C", "setting": "second compound 0.0316 µM, first compound 3.16 µM", "result": 73, "unit": "%"},
      {"measurement": "viability, T/C", "setting": "second compound 0.0316 µM, first compound 10 µM", "result": 69.6, "unit": "%"},
      {"measurement": "viability, T/C", "setting": "[7]", "result": 55.7, "unit": "%"},
      {"measurement": "viability, T/C", "setting": "[8]", "result": 54.8, "unit": "%"},
      {"measurement": "viability, T/C", "setting": "second compound 0.1 µM, first compound 0.316 µM", "result": 69.7, "unit": "%"},
      {"measurement": "viability, T/C", "setting": "second compound 0.1 µM, first compound 1 µM", "result": 63.4, "unit": "%"},
      {"measurement": "viability, T/C", "setting": "second compound 0.1 µM, first compound 3.16 µM", "result": 52.5, "unit": "%"},
      {"measurement": "viability, T/C", "setting": "second compound 0.1 µM, first compound 10 µM", "result": 67.6, "unit": "%"},
      {"measurement": "viability, T/C", "setting": "[9]", "result": 26.4, "unit": "%"},
      {"measurement": "viability, T/C", "setting": "[10]", "result": 23.5, "unit": "%"},
      {"measurement": "viability, T/C", "setting": "second compound 0.316 µM, first compound 0.316 µM", "result": 25.5, "unit": "%"},
      {"measurement": "viability, T/C", "setting": "second compound 0.316 µM, first compound 1 µM", "result": 28.9, "unit": "%"},
      {"measurement": "viability, T/C", "setting": "second compound 0.316 µM, first compound 3.16 µM", "result": 25.5, "unit": "%"},
      {"measurement": "viability, T/C", "setting": "second compound 0.316 µM, first compound 10 µM", "result": 22.8, "unit": "%"},
      {"measurement": "viability, T/C", "setting": "[11]", "result": 4.5, "unit": "%"},
      {"measurement": "viability, T/C", "setting": "[12]", "result": 3.78, "unit": "%"},
      {"measurement": "viability, T/C", "setting": "second compound 1 µM, first compound 0.316 µM", "result": 4.07, "unit": "%"},
      {"measurement": "viability, T/C", "setting": "second compound 1 µM, first compound 1 µM", "result": 3.93, "unit": "%"},
      {"measurement": "viability, T/C", "setting": "second compound 1 µM, first compound 3.16 µM", "result": 4.32, "unit": "%"},
      {"measurement": "viability, T/C", "setting": "second compound 1 µM, first compound 10 µM", "result": 4.03, "unit": "%"}
    ]}
  ]
}
